Our source for the In vitro activity values is ChEMBL document CHEMBL5096127, “Using ChEMBL to complement schistosome drug discovery” (2023).

Calls of active or inactive are those of the source. No rule for the calls is given here. Peptide text beside a SMILES is read from it. * marks the point of attachment. Cbz = O=C(OCc1ccccc1)*

Assay [1] relates to Schistosoma mansoni. Put plainly: In vitro activity on S. mansoni schistosomula at 10 uM. Format: functional, organism-based. Details: test concentration 10 uM, temperature 37 degree C, time incubation 72 h. To be noted: Puerto Rican.
The test system of assay [2] is Schistosoma mansoni. In words: In vitro activity on S. mansoni schistosomula at 50 uM. Details: test concentration 50 uM, temperature 37 degree C, time incubation 72 h. The settings on record: Puerto Rican. Format: functional, organism-based.

Consider `Cc1nccc(-c2cn(Cc3ccccc3)c3cnccc23)n1`, for which the In vitro activity entry with Schistosoma mansoni [1] is “inactive”. In addition, the In vitro activity entry with Schistosoma mansoni [2] is “Active”.

In the case of `Nc1nc(N)c2nc(-c3cccc(O)c3)c(-c3cccc(O)c3)nc2n1`, the In vitro activity entry with Schistosoma mansoni [1] and in the assay with Schistosoma mansoni [2] was “inactive” each time.

Turning to `CC(C)(C)c1cnc(CSc2cnc(NC(=O)C3CCNCC3)s2)o1`, the In vitro activity entry in the assay with Schistosoma mansoni [1] and in the assay with Schistosoma mansoni [2] was “inactive” in each case.

Regarding `CNC(=O)c1c(F)cccc1Nc1nc(Nc2cc3c(cc2OC)CCN3C(=O)CN(C)C)nc2[nH]ccc12`, in the assay on Schistosoma mansoni [1], the In vitro activity result was “inactive”. The In vitro activity entry in the assay on Schistosoma mansoni [2] is “Active”.

As for `CN(C)Cc1c(C(=O)NCCOc2ccc(C(=O)NO)cc2)oc2ccccc12`, the In vitro activity result in the assay on Schistosoma mansoni [1] was “inactive”. Further, the In vitro activity entry in the assay with Schistosoma mansoni [2] was “Active”.

On to `Nc1ncnc2c1ncn2[C@@H]1O[C@H](COP(=O)(O)OP(=O)(O)O)[C@@H](O)[C@H]1O`, for which the In vitro activity entry with Schistosoma mansoni [1] and in the assay on Schistosoma mansoni [2] was “inactive” each time.

For `CCc1cc(-c2[nH]nc(C)c2-c2ccc3c(c2)OCCO3)c(O)cc1O`, the In vitro activity entry in the assay on Schistosoma mansoni [1] was “inactive”. The In vitro activity result with Schistosoma mansoni [2] is “Active”.

As to `O=C(CCCCCN1C(=O)c2cccc3cccc(c23)C1=O)NO`, the In vitro activity entry in the assay on Schistosoma mansoni [1] and in the assay with Schistosoma mansoni [2] was “inactive” in each case.

In the case of `C[S+]([O-])c1ccc(-c2nc(-c3ccc(F)cc3)c(-c3ccncc3)[nH]2)cc1` (stereo unspecified), the In vitro activity result with Schistosoma mansoni [1] and with Schistosoma mansoni [2] was “inactive” each time.

For `CCN1CCN(Cc2ccc(NC(=O)Nc3ccc(Oc4cc(NC)ncn4)cc3)cc2C(F)(F)F)CC1`, the In vitro activity entry in the assay on Schistosoma mansoni [1] was “inactive”. For the same compound, in the assay on Schistosoma mansoni [2], the In vitro activity entry is “Active”.

For the compound `Nc1nc2c(ncn2[C@@H]2O[C@H](COP(=O)(O)OP(=O)(O)O)[C@@H](O)[C@H]2O)c(=O)[nH]1`, the In vitro activity entry with Schistosoma mansoni [1] and in the assay on Schistosoma mansoni [2] was “inactive” each time.

With `CN1CCC(NC(=O)c2cc(-c3c(O)cc(O)cc3Oc3ccc([N+](=O)[O-])cc3)on2)CC1`, the In vitro activity entry in the assay with Schistosoma mansoni [1] and in the assay on Schistosoma mansoni [2] was “inactive” each time.

Regarding `O=C(NO)c1cnc(NC2(c3ccccc3)CC2)nc1`, the In vitro activity entry in the assay with Schistosoma mansoni [1] and with Schistosoma mansoni [2] was “inactive” in each case.

Consider `CC(C)NCCCn1c(Sc2cc3c(cc2I)OCO3)nc2c(N)ncnc21`, for which the In vitro activity entry in the assay with Schistosoma mansoni [1] is “inactive”. The In vitro activity entry with Schistosoma mansoni [2] was “Active”.

For the compound `COc1ncc(-c2ccc3nc(N)n(-c4ccccc4C(F)(F)F)c(=O)c3c2)cc1S(=O)(=O)Nc1ccc(F)cc1F`, in the assay on Schistosoma mansoni [1], the In vitro activity entry was “inactive”. Further, in the assay with Schistosoma mansoni [2], the In vitro activity result was “Active”.

As to `CC(C)c1cccc(=O)c(O)c1`, the In vitro activity entry in the assay on Schistosoma mansoni [1] and with Schistosoma mansoni [2] was “inactive” throughout.

Regarding `Cc1cc(/N=N/c2cc(S(=O)(=O)O)c(C)cc2C)c(N)cc1O`, the In vitro activity entry with Schistosoma mansoni [1] and in the assay on Schistosoma mansoni [2] was “inactive” in each case.

As to `O=C1NC(=O)/C(=C/c2ccc3nccnc3c2)S1`, in the assay on Schistosoma mansoni [1], the In vitro activity result was “inactive”. For the same compound, in the assay with Schistosoma mansoni [2], the In vitro activity entry is “Active”.

On to `Nc1ccc(-c2ccc(F)cc2)cc1NC(=O)C1CCOCC1`, for which the In vitro activity result with Schistosoma mansoni [1] and in the assay with Schistosoma mansoni [2] was “inactive” each time.

As to `CC(C)C[C@@H](C=O)NC(=O)[C@H](CC(C)C)NC(=O)[C@H](CC(C)C)NC(=O)OCc1ccccc1` (Cbz-Leu-Leu-Leu-aldehyde), in the assay on Schistosoma mansoni [1], the In vitro activity result was “inactive”. Also, in the assay on Schistosoma mansoni [2], the In vitro activity result was “Active”.

In the case of `O=C(c1ccc(/C=C/c2n[nH]c3ccccc23)cc1)N1CCNCC1`, the In vitro activity result in the assay on Schistosoma mansoni [1] is “inactive”. For the same compound, the In vitro activity entry in the assay on Schistosoma mansoni [2] is “Active”.

With `CCN1/C(=C/C(C)=O)Sc2ccc(O)cc21`, the In vitro activity entry in the assay with Schistosoma mansoni [1] and with Schistosoma mansoni [2] was “inactive” in each case.

On to `COc1ccc(-c2c(-c3ccc(O)cc3O)n[nH]c2C)cc1`, for which the In vitro activity result in the assay with Schistosoma mansoni [1] and in the assay with Schistosoma mansoni [2] was “inactive” each time.

Turning to `CC(O)(CC(=O)O)CC(=O)O`, the In vitro activity result in the assay with Schistosoma mansoni [1] and in the assay with Schistosoma mansoni [2] was “inactive” in each case.

For `NC(=O)c1ccc(-c2nc(-c3ccccn3)c(-c3ccc4c(c3)OCO4)[nH]2)cc1`, in the assay on Schistosoma mansoni [1], the In vitro activity entry was “inactive”. For the same compound, the In vitro activity result in the assay on Schistosoma mansoni [2] is “Active”.

Take `O=C(CCCCCCC(=O)Nc1cccnc1)NO`: the In vitro activity entry in the assay on Schistosoma mansoni [1] and with Schistosoma mansoni [2] was “inactive” throughout.

As to `CC(=O)Nc1ccc(C(=O)Nc2cc(-c3cccs3)ccc2N)cc1`, the In vitro activity entry with Schistosoma mansoni [1] and with Schistosoma mansoni [2] was “inactive” each time.

Turning to `Fc1ccc(Cl)cc1-c1nc(Nc2ccncc2)c2nccnc2n1`, the In vitro activity entry in the assay on Schistosoma mansoni [1] and in the assay with Schistosoma mansoni [2] was “inactive” throughout.

Take `CN1CCN(C(=O)CN[C@H]2C[C@@H]2c2ccc(OCc3ccccc3)cc2)CC1`: in the assay with Schistosoma mansoni [1], the In vitro activity entry is “inactive”. The In vitro activity result in the assay with Schistosoma mansoni [2] was “Active”.

With `c1ccc(-c2n[nH]cc2-c2ccnc3ccccc23)nc1`, the In vitro activity entry in the assay on Schistosoma mansoni [1] and with Schistosoma mansoni [2] was “inactive” throughout.

In the case of `Oc1ccc(Nc2nc(-c3ccc(Cl)cc3)cs2)cc1`, the In vitro activity result in the assay with Schistosoma mansoni [1] is “inactive”. For the same compound, in the assay with Schistosoma mansoni [2], the In vitro activity entry is “Active”.

As for `CN[C@@H]1C[C@H]2O[C@@](C)([C@@H]1OC)n1c3ccccc3c3c4c(c5c6ccccc6n2c5c31)C(=O)NC4`, the In vitro activity result with Schistosoma mansoni [1] and in the assay on Schistosoma mansoni [2] was “Active” in each case.

On to `CC(=O)N1CCc2c(c(Nc3ccc(-c4cnn(C)c4)cc3F)nn2[C@H]2CCOC2)C1`, for which the In vitro activity result in the assay on Schistosoma mansoni [1] and in the assay with Schistosoma mansoni [2] was “inactive” each time.

Turning to `O=C(CCCCCCNC(=O)c1cnc(N(c2ccccc2)c2ccccc2)nc1)NO`, the In vitro activity entry with Schistosoma mansoni [1] and with Schistosoma mansoni [2] was “inactive” in each case.

For `CC1(C)Cc2c(sc(NC(=S)NC(=O)c3ccccc3)c2C(=O)O)CO1`, the In vitro activity result in the assay on Schistosoma mansoni [1] and with Schistosoma mansoni [2] was “inactive” throughout.

Consider `COc1ccc(F)c(F)c1C(=O)c1cnc(NC2CCN(S(C)(=O)=O)CC2)nc1N`, for which the In vitro activity entry in the assay on Schistosoma mansoni [1] and with Schistosoma mansoni [2] was “inactive” throughout.

Consider `Cc1cc(Nc2cc(N3CCN(C)CC3)nc(Sc3ccc(NC(=O)C4CC4)cc3)n2)n[nH]1`, for which, in the assay on Schistosoma mansoni [1], the In vitro activity result is “inactive”. For the same compound, the In vitro activity entry in the assay on Schistosoma mansoni [2] was “Active”.

`O=C1NCCCc2c1oc1ccc(O)cc21`: the In vitro activity result with Schistosoma mansoni [1] and with Schistosoma mansoni [2] was “inactive” throughout.

On to `COc1ccc(-c2nc(N)ncc2-c2csc(C)n2)c(O)c1`, for which the In vitro activity entry in the assay with Schistosoma mansoni [1] and in the assay with Schistosoma mansoni [2] was “inactive” throughout.

As for `CCCCc1nc2cc(/C=C/C(=O)NO)ccc2n1CCN(CC)CC`, the In vitro activity entry in the assay on Schistosoma mansoni [1] and in the assay on Schistosoma mansoni [2] was “inactive” in each case.

Consider `COc1ncc2cc(C(=O)Nc3cc(C(=O)NCc4cccc(Cl)c4)ccc3Cl)c(=O)[nH]c2n1`, for which the In vitro activity result with Schistosoma mansoni [1] and in the assay on Schistosoma mansoni [2] was “inactive” throughout.

`O=C(/C=C/c1ccc2c(ccn2S(=O)(=O)c2ccccc2)c1)NO`: the In vitro activity entry with Schistosoma mansoni [1] was “inactive”. The In vitro activity result with Schistosoma mansoni [2] was “Active”.

With `CNC(=O)c1ccc(Nc2nc(OC3CCCC3)c3c(-c4ccc5nc(C)oc5c4)c[nH]c3n2)c(OC)c1`, the In vitro activity result in the assay with Schistosoma mansoni [1] and in the assay with Schistosoma mansoni [2] was “inactive” throughout.

`O=C(O)c1ccc(CN2CCC(CN[C@@H]3C[C@H]3c3ccccc3)CC2)cc1`: the In vitro activity entry in the assay with Schistosoma mansoni [1] and in the assay with Schistosoma mansoni [2] was “inactive” each time.

With `C[C@H]1CCCC(=O)CCCCCc2cc(O)cc(O)c2C(=O)O1`, the In vitro activity entry with Schistosoma mansoni [1] and in the assay on Schistosoma mansoni [2] was “inactive” each time.

Consider `C[C@]12CC[C@H](O)C[C@H]1CC[C@@H]1[C@@H]2CC[C@]2(C)[C@@H](C3=CC(=O)OC3)CC[C@]12O`, for which, in the assay with Schistosoma mansoni [1], the In vitro activity result was “inactive”. For the same compound, the In vitro activity result with Schistosoma mansoni [2] was “Active”.

With `COc1ccc2c(c1)[nH]c1c(C)nccc12`, the In vitro activity entry in the assay on Schistosoma mansoni [1] and in the assay with Schistosoma mansoni [2] was “inactive” throughout.

Regarding `Cc1nc2c(OCc3ccccc3)cccn2c1CC#N`, the In vitro activity result in the assay on Schistosoma mansoni [1] and in the assay with Schistosoma mansoni [2] was “inactive” throughout.

As to `C#Cc1cccc(Nc2ncnc3cc(OC)c(OCCCCCCC(=O)NO)cc23)c1`, the In vitro activity result with Schistosoma mansoni [1] and in the assay on Schistosoma mansoni [2] was “inactive” each time.

Turning to `Cc1cccc(-c2[nH]c(C(C)(C)C)nc2-c2ccc3c(c2)OCO3)n1`, the In vitro activity entry in the assay with Schistosoma mansoni [1] and in the assay with Schistosoma mansoni [2] was “inactive” in each case.

Turning to `N[C@H]1C[C@@H]1c1ccc(-c2cccc(O)c2)cc1`, the In vitro activity entry with Schistosoma mansoni [1] was “inactive”. The In vitro activity result in the assay with Schistosoma mansoni [2] is “Active”.

As to `CN(C)CCCn1cc(C2=C(c3c[nH]c4ccccc34)C(=O)NC2=O)c2ccccc21`, in the assay on Schistosoma mansoni [1], the In vitro activity entry is “inactive”. Besides, in the assay with Schistosoma mansoni [2], the In vitro activity entry is “Active”.

For `Cc1cccc(-c2nn3c(c2-c2ccnc4ccc(C(N)=O)cc24)CCC3)n1`, the In vitro activity entry with Schistosoma mansoni [1] and with Schistosoma mansoni [2] was “inactive” each time.

With `O=C(/C=C/c1ccc(CN(CCO)CCc2c[nH]c3ccccc23)cc1)NO`, the In vitro activity entry in the assay on Schistosoma mansoni [1] is “inactive”. Further, in the assay with Schistosoma mansoni [2], the In vitro activity result was “Active”.

For the compound `O=C(NC1CCNCC1)c1n[nH]cc1NC(=O)c1c(Cl)cccc1Cl`, the In vitro activity entry with Schistosoma mansoni [1] and in the assay on Schistosoma mansoni [2] was “inactive” each time.

Consider `Nc1nc(Nc2ccc(S(N)(=O)=O)cc2)nn1C(=O)c1c(F)cccc1F`, for which the In vitro activity result in the assay with Schistosoma mansoni [1] and in the assay with Schistosoma mansoni [2] was “inactive” throughout.

In the case of `O=C(O)C[C@@H]1C(=O)O[C@H]2[C@@H]3OC(=O)c4cc(O)c(O)c(O)c4-c4c(cc(O)c(O)c4O)C(=O)OC[C@H]2O[C@@H](OC(=O)c2cc(O)c(O)c(O)c2)[C@@H]3OC(=O)c2cc(O)c(O)c3c2[C@H]1[C@H](O)C(=O)O3`, the In vitro activity entry in the assay on Schistosoma mansoni [1] and in the assay with Schistosoma mansoni [2] was “inactive” in each case.

For the compound `COc1cc(Nc2ncc(F)c(Nc3ccc4c(n3)NC(=O)C(C)(C)O4)n2)cc(OC)c1OC`, the In vitro activity entry in the assay on Schistosoma mansoni [1] and in the assay with Schistosoma mansoni [2] was “inactive” each time.
